ChEMBL document CHEMBL1201862, “PubChem BioAssay data set” (2004)
Calls of active or inactive are those of the source.

Columns and labels:
[1] = THP-1 cell cytotoxicity, dose response, cytotoxicity control for non-replicating M. tuberculosis project (AID 489025); format: functional
cells = format: functional
[2] = HepG2 cell cytotoxicity, dose response, cytotoxicity control for non-replicating M. tuberculosis project (AID 489018); format: functional; details: Mycobacterium tuberculosis
[3] = Vero E6 cell cytotoxicity, dose response, cytotoxicity control for non-replicating M. tuberculosis project, secondary assay (AID 492998); format: functional, VeroE6; details: Vero C1008
X-box-binding protein 1 = target: T1, X-box-binding protein 1 (Homo sapiens, UniProt P17861); format: functional, Cricetulus griseus;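 further: confirmatory dose-response counter-screen serving a CHOP assay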
T1 sequence (P17861 whole entry): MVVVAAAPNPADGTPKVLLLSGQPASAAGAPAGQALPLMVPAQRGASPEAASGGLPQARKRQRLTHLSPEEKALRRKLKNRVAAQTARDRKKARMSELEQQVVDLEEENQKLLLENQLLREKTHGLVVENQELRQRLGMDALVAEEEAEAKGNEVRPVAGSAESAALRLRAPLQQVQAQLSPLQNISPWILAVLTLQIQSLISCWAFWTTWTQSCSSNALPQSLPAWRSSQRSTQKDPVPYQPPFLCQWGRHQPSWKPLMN

[4] = target: Glyceraldehyde-3-phosphate dehydrogenase (Homo sapiens, UniProt P04406)
[5] = target: T2, Alkaline phosphatase, tissue-nonspecific isozyme (Homo sapiens, UniProt P05186); assay: potency against alkaline phosphatase TNAP – biochemical, luminescent, dose response, SAR follow-up (AID 1056)
T2 sequence (P05186 whole entry): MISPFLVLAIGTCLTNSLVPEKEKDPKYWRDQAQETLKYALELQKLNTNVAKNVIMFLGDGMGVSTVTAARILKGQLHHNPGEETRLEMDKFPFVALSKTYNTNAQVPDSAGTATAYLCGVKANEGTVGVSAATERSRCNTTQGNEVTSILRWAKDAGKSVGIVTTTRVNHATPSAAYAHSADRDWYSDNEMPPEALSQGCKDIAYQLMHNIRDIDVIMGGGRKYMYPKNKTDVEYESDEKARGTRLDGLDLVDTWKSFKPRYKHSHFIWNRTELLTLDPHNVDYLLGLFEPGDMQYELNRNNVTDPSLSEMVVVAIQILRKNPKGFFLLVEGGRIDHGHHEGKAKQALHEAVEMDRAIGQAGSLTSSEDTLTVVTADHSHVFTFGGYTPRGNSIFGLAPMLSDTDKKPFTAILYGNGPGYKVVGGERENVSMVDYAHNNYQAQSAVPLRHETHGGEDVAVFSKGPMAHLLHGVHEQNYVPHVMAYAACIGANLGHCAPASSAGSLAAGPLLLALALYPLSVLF

[6] = NIH3T3 cell viability loss – ATP luminescence, mouse fibroblasts, counter-screen, dose response (AID 2010); format: functional, cell-based;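 further: cells exposed to compound for about 90 hours before reading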
HEK293 [7] = assay: cells; details: Homo sapiens
[8] = Trypanosoma cruzi growth suppression in host cells – NIH3T3 host cells, beta-gal luminescence, confirmation (AID 2044); format: functional, cell-based;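 further: intracellular parasites grown in NIH/3T3 mouse fibroblasts as host cells; luminescent beta-galactosidase reporter signal from transgenic T. cruzi replicating inside host cells; inhibitors lower the luminescence signal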
HEK293 [9] = assay: cells; details: Homo sapiens; remark: listed apart in the source
[10] = target: Eukaryotic translation initiation factor 4E (Mus musculus, UniProt P63073); assay: blockers of eIF4G binding by eIF4E – biochemical, TR-FRET, dose response (AID 855); format: functional;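 further: potency for disrupting eIF4E binding to eIF4GI seen as loss of FRET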
[11] = target: T3, Heat shock factor protein 1 (Mus musculus, UniProt P38532); assay: decrease of HSF1-responsive luciferase luminescence – cell-based, NIH3T3, dose retest, confirmation (AID 2382); format: functional;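 further: NIH3T3 fibroblasts with HSF1-driven luciferase reporter stressed by proteasome inhibitor MG132; luminescence from HSF1-driven luciferase expression after 8 hours of MG132 stress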
T3 sequence (P38532 whole entry): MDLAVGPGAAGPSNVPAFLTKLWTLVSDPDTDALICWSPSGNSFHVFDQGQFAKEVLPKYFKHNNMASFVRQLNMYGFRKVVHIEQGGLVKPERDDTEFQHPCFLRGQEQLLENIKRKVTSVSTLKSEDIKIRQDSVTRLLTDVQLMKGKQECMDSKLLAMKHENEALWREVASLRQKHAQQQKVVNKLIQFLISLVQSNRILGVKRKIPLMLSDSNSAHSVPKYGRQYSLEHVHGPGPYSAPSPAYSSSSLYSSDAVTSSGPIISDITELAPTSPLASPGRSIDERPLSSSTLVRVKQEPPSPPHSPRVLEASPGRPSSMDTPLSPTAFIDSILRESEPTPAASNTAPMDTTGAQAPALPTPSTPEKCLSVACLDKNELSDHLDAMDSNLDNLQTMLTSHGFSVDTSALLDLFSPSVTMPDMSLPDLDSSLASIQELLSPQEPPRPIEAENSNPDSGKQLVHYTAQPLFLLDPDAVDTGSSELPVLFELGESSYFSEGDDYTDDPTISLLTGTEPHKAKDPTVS

[12] = target: T4, High affinity choline transporter 1 (Homo sapiens, UniProt Q9GZV3); assay: human choline transporter blockers, potency – cell-based, 5-point CRC, membrane potential dye, dose response (AID 504840); format: functional
T4 sequence (Q9GZV3 whole entry): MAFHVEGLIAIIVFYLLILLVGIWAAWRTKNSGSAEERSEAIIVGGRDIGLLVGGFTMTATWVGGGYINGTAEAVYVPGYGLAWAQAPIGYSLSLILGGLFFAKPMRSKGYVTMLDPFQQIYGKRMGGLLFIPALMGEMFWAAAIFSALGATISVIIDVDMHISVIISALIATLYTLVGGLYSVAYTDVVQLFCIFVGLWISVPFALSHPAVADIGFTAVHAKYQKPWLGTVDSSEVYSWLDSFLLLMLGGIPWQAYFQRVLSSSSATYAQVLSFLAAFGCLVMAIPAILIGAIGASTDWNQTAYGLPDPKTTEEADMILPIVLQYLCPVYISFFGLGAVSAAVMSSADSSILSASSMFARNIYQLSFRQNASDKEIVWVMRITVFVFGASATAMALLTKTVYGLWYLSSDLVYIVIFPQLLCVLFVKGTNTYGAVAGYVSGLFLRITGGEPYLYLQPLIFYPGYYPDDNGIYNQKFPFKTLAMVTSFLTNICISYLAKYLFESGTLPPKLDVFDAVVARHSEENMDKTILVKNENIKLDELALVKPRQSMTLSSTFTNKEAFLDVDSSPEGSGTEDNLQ

HEK293 [13] = assay: cells; details: Homo sapiens; remark: listed apart in the source
[14] = target: T5, Nucleotide-binding oligomerization domain-containing protein 1 (Homo sapiens, UniProt Q9Y239); assay: blockers of NOD1 pathway activity – revised, SAR follow-up (AID 2333); format: functional
T5 sequence (Q9Y239 whole entry): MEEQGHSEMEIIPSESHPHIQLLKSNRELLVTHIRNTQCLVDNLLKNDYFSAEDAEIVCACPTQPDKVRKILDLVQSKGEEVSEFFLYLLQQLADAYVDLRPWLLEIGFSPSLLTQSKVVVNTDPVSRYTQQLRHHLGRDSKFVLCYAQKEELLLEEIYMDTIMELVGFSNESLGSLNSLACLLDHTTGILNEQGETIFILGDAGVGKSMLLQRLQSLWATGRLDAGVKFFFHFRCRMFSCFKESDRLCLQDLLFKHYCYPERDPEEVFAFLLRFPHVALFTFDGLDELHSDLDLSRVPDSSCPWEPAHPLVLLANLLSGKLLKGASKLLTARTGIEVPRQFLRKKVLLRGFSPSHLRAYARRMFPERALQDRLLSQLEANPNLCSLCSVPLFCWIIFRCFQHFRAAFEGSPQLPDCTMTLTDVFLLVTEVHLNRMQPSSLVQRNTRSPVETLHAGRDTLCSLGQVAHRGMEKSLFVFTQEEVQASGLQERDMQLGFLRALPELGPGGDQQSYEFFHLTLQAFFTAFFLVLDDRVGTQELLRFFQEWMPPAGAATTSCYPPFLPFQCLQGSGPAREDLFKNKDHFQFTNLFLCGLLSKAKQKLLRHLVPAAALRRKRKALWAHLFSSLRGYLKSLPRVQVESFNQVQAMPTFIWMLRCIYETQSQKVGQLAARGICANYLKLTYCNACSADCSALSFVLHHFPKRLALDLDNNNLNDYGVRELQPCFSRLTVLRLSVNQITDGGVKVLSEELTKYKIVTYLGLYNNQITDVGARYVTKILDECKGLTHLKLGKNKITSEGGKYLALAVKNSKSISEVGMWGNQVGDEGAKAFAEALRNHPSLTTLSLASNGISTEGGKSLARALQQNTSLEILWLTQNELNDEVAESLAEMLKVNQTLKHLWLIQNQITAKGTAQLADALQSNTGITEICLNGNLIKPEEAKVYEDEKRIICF

Tumor necrosis factor = Tumor necrosis factor (Homo sapiens, UniProt P01375); assay: analog potency on TNFa NF-kB signaling – cell-based, revised, SAR follow-up (AID 2337); format: functional
[15] = target: DNA damage-inducible transcript 3 protein (Mus musculus, UniProt P35639); format: functional, Cricetulus griseus
[16] = viability of PTEN-deleted HCT116 cells – cell-based, HCT116 PTEN knockout, dose response (AID 1047); format: functional;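 further: HCT116 colon tumor cells with PTEN knocked out; cells exposed to compound for 60 hours before readout; potency for loss of cell viability measured by luminescence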
[17] = viability of HCT116 lacking mutant beta-catenin – cell-based, human colon tumor, dose response (AID 1045); format: functional;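 further: HCT116 colon tumor cells with beta catenin knocked out; cells exposed to compound for 60 hours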
Cysteine protease ATG4B = target: T6, Cysteine protease ATG4B (Homo sapiens, UniProt Q9Y4P1); format: functional;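 further: Fluorescence-based dose-response confirmation assay measuring inhibition of ATG4B activity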
T6 sequence (Q9Y4P1 whole entry): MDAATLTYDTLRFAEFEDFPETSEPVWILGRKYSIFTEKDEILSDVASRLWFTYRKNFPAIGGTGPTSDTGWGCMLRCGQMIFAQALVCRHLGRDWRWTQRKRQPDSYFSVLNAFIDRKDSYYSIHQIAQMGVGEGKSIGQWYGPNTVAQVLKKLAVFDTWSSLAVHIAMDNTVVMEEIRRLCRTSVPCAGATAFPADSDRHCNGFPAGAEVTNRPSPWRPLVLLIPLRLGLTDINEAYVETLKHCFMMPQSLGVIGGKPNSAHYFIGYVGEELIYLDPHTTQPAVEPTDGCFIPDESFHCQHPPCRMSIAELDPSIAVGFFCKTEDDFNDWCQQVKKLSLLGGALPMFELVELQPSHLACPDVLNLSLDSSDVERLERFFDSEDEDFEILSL

Phospholipase A2 = Phospholipase A2 (Homo sapiens, UniProt P04054); format: functional;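 further: confirmatory dose-response counterscreen on phospholipase A2, testing hits that came from an ultra-high-throughput screen for ATG4B inhibitors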
[18] = viability of uninfected HEp-2 cells – cell-based, HTS, cytotoxicity control for RSV inhibitor project, dose response (AID 2410); format: functional; details: human respiratory syncytial virus

Tumor necrosis factor, sequence (P01375 whole entry): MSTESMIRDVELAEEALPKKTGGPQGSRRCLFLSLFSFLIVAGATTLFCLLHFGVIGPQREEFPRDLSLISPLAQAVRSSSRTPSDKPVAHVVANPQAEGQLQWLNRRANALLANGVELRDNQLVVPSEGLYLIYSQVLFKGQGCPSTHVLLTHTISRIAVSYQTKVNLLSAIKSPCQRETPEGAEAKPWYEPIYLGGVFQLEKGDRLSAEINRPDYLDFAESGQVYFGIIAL
DNA damage-inducible transcript 3 protein, sequence (P35639 whole entry): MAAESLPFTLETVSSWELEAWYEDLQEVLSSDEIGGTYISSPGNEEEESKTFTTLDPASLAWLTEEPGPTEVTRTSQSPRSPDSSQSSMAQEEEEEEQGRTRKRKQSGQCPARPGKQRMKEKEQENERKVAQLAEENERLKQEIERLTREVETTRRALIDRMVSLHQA
Eukaryotic translation initiation factor 4E, sequence (P63073 whole entry): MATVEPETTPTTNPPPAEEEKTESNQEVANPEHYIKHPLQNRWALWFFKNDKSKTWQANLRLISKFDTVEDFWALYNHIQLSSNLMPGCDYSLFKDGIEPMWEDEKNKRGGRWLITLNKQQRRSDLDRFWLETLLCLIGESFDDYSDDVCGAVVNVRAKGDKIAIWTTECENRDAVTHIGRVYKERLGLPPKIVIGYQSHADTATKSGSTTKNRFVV
Phospholipase A2, sequence (P04054 whole entry): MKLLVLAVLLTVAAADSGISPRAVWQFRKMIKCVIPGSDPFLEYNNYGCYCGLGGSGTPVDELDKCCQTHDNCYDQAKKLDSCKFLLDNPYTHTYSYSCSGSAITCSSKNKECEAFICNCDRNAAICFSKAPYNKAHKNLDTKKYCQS
Glyceraldehyde-3-phosphate dehydrogenase, sequence (P04406 whole entry): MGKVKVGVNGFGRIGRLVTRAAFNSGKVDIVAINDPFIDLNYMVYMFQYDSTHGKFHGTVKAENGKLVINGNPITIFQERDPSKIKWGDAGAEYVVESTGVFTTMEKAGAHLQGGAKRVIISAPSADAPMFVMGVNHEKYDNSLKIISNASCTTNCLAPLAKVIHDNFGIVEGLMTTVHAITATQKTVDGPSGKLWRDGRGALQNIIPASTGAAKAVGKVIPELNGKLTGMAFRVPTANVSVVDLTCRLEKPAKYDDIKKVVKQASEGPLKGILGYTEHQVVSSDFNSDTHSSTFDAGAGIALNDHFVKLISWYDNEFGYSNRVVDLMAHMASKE

Compound: O=C(Nc1nnc(C2CC2)o1)c1ccc(S(=O)(=O)N2CCCCC2)cc1
- CC50 [1]: > 40 µM (active)
- IC50 (cells): 10.3 µM (active)
- CC50 [2]: > 20 µM (active)
- CC50 [3]: 11.5 µM (active)

Compound: CC(C)=CCc1c(O)c(CC=C(C)C)c2c(c1O)C(=O)CC(c1ccc(O)cc1)O2 (configuration not stated)
- Absolute IC50 (XBP1) (X-box-binding protein 1): 10 µM

Compound: COc1cccc(Cc2nnc(N3C(=O)c4ccccc4C3=O)[nH]2)c1
- IC50 [4]: > 100 µM (not active)
- IC50 [5]: 1.19 µM (active)

Compound: CC(C)(C)N1C(=O)[C@H]2[C@@H](c3ccc(Br)cc3)N3C(=O)N(c4cccc(Br)c4)C(=O)[C@@]3(Cc3ccccc3)[C@H]2C1=O
- EC50 [6]: > 60 µM (not active)
- EC50 (HEK293 [7]): > 59.7 µM (inactive)
- EC50 [8]: 2.32 µM (active)
- EC50 (HEK293 [9]): > 59.7 µM (inactive)

Compound: CC1CCN(C(=S)c2ccccc2O)CC1
- IC50 [10]: > 64 µM (inactive)

Compound: O=C(COC(=O)Cc1c(Cl)cccc1Cl)Nc1ccc(OC(F)(F)F)cc1
- EC50 [11]: > 195 µM (not active)
- Absolute IC50 (XBP1) (X-box-binding protein 1): 10 µM

Compound: CCn1c(=O)cc(OCC(=O)NC(C)c2ccc3c(c2)OCCO3)c2ccccc21 (configuration not stated)
- IC50 [12]: 15.8 µM (active)

Compound: CCOc1cc(C2c3c(C)n[nH]c3C(=O)N2c2ccc(C)cc2)ccc1O (configuration not stated)
- IC50 [10]: > 64 µM (inactive)

Compound: CC1CCc2c(sc(NC(=O)c3ccc(Br)cc3)c2C(=O)O)C1 (configuration not stated)
- IC50 (HEK293 [13]): 4.72 µM (active)
- IC50 [14]: 0.375 µM (active)
- IC50 (Tumor necrosis factor): 6.82 µM (active)

Compound: O=C(Nc1sc2c(c1C(=O)O)CCCC2)c1ccc(Br)cc1
- IC50 (HEK293 [13]): > 20 µM (inactive)
- IC50 [14]: 0.77 µM (active)
- IC50 (Tumor necrosis factor): 2.25 µM (active)

Compound: COc1ccc(F)c(-c2nc(CN3CCN(c4ncnc5ccccc45)CC3)c(C)o2)c1
- IC50 (HEK293 [13]): 13.7 µM (active)
- IC50 [14]: 3.93 µM (active)
- IC50 (Tumor necrosis factor): 3.8 µM (active)

Compound: Cc1ccc(NCC(=O)N/N=C/c2cccc(Oc3ccccc3)c2)cc1
- Absolute IC50 (CHOP) [15]: 10 µM
- Absolute IC50 (XBP1) (X-box-binding protein 1): < 10 µM

Compound: Cc1cc(NC(=O)CSc2nc3cc4c(cc3c(=O)n2CCc2ccccc2)OCO4)no1
- Absolute IC50 (CHOP) [15]: 10 µM
- Absolute IC50 (XBP1) (X-box-binding protein 1): 10 µM

Compound: CCOC(=O)C1CCCN(C(=O)c2csc(-c3ccc4c(c3)CCO4)n2)C1 (configuration not stated)
- IC50 [12]: 13.2 µM (active)

Compound: CCOC(=O)c1c(NC(=O)CSc2nnc(-c3c[nH]c4ccccc34)n2CCOC)sc2c1CCCCC2
- EC50 [16]: 21.3 µM (active)
- EC50 [17]: 26.3 µM (active)
- EC50 (HEK293 [7]): > 59.7 µM (inactive)
- EC50 (HEK293 [9]): > 59.7 µM (inactive)

Compound: N#CC1=C(N)S[C@H](C(=O)C23CC4CC(CC(C4)C2)C3)[C@H]1c1ccncc1
- EC50 (HEK293 [7]): > 59.7 µM (inactive)
- EC50 (HEK293 [9]): > 59.7 µM (inactive)

Compound: Cc1ccc(C(=O)Nc2nc(-c3ccco3)c(-c3ccco3)s2)o1
- IC50 (Cysteine protease ATG4B): 9.23 µM (active)
- IC50 (Phospholipase A2): 5.79 µM (active)

Compound: CC(C)CCNCC(O)CON=C1c2ccccc2-c2ccccc21 (configuration not stated)
- CC50 [1]: 13.8 µM (active)
- IC50 (cells): 16.8 µM (active)
- CC50 [18]: 12.6 µM (active)
- CC50 [2]: 14.4 µM (active)
